This note sets out measurements from patent US6878736B1, “Histamine H3 receptor ligands” (James Black Foundation Limited, priority 1998, dated 2005).

Counter-ions that a name gives are not always drawn.

The target of assay [1] is T1, Histamine H3 receptor (Cavia porcellus, UniProt Q9JI35). In words: Histamine H3 functional assay, guinea pig ileum (ileal longitudinal muscle, myenteric plexus). On the set-up: species or system tissue. The following applies: antagonist affinity from rightward shift of R-(α)-methylhistamine E/[A] curves (Schild), typical variance ±0.15 log units; for Kb: read-out: pKb (Guinea pig ileum) (converted). The protocol:
• 1. J. Med. Chem 1994, 314. • 2. WO 97/29092 Histamine H3 Functional Assay—Guinea Pig Ileum
The biological activity of the compounds of the examples was measured using the ileal longitudinal muscle, myenteric plexus assay described by Paton and Aboo Zar (J. Physiol. 1968, 194, 13-33). Male Dunkin-Hartley guinea pigs (250-300 g) were employed. Briefly, a 50 cm portion of ileum proximal to the caecum was removed, after discarding the terminal 20 cm. Ileal segments (3 cm) were cleaned by passing Krebs-Henseleit buffer containing 3 μM mepyramine gently through the ileum using a Pasteur pipette (size: 13.8 cm length, 0.65 cm diameter). To avoid unnecessary damage to the tissue, Krebs-Henseleit buffer was passed through the ileal segment, while it was lying horizontally on a petri dish. Therefore, the ileum was not over-distended and the buffer flowed through with ease. Each segment was then passed over a Pasteur pipette and the longitudinal muscle layer and adhering myenteric plexus was teased away using moist cotton wool, by stroking tangentially away from the mesenteric attachment. The tissues were suspended in 20 ml organ baths containing Krebs-Henseleit buffer at 37±1° C. and gassed with […]. The tissues were ligated to two parallel stainless steel wires, situated between two platinum electrodes (0.76 cm length, 0.06 cm diameter). All measurements were recorded isometrically (Grass FTO3 transducer). Following an initial loading tension of 1 g, the tissues were stimulated with electrical pulses at a frequency of 0.1 Hz and a pulse duration of 0.5 msec, as described by Kosterlitz & Watt (Br. J. Pharmacol. 1968, 266276). Initially, the tissues were stimulated at supramaximal (1.3 fold times maximal) voltage for a period of 30 min and then the tissues were washed and re-stimulated. A “sighter dose” of the selective histamine H3-receptor agonist, R-(α)-methylhistamine (0.3 μM) (Arrang et al. Nature, 1987, 117-123), was administered. Upon generation of response, the “sighter dose” was removed from the tissues by “washout” (6 washes over 60 min) and during this period the electrical stimulation was switched off. The tissues were then re-stimulated and allowed to stabilise prior to the addition of drug treatments, which were allocated on a randomised block basis to the organ baths. Following the incubation period, a single cumulative E/[A] curve was obtained. The experimental E/[A] curve data was expressed as the percentage inhibition of the peak height of electrically-stimulated contraction. Antagonist affinity values were calculated from the degree of rightward shift of the R-(α)-methylhistamine E/[A] curves using Schild's methods (Arunlakshana & Schild Br. J. Pharmacol. 1959, 48-58). Typical variance in this assay is ±0.15 log units.

Assay [2] has as its target T1, Histamine H3 receptor. Put plainly: Histamine H3 radioligand binding assay, guinea pig cortex ([3H]-R-α-methylhistamine). The following applies: guinea pig cortex membranes, competition with 1 nM [3H]-R-α-methylhistamine; for Ki: read-out: pKi (Guinea pig cortex) (converted). The protocol:
The compounds of the invention were also tested in a guinea pig cortex binding assay, as follows:
Histamine H3 Radioligand Binding Assay—Guinea Pig Cortex
Male Dunkin Hartley guinea pigs (200-300 g) were used. The whole brain was removed and immediately placed in ice-cold 20 mM Hepes-NaOH buffer (pH7.4 at 21±3° C.). The cortex was dissected, weighed and homogenised in ice-cold 20 mM Hepes-NaOH buffer (pH7.4 at 21±3° C.) (50 ml/guinea-pig cortex) using a polytron (Kinematica AG; PT-DA 3020/2TS, 3×3 s). The homogenate was centrifuged at 100×g for 5 min and the supernatants pooled and stored at 4° C. The pellets were rehomogenised in fresh ice-cold buffer (80 ml) and recentrifuged (100×g for 5 min). The supernatants were pooled and pellets rehomogenised and recentrifuged (100×g for 5 min). All supernatants were pooled and centrifuged at 39,800×g for 12 min at 4° C. The final pellet was resuspended in 20 mM Hepes-NaOH buffer (pH7.4 at 21±3° C.) to a tissue concentration of 7.5 mg.ml^−1, using a teflon-in-glass homogeniser.
Guinea pig cortex membranes (400 μl) were incubated for 165 min at 21±3° C. in a final volume of 500 μl with 20 mM Hepes-NaOH buffer containing [^3H]-R-α-methylhistamine (50 μl; 1 nM) and competing compound. Total and non-specific binding of [^3H]-R-α-methylhistamine were defined using 50 μl of buffer and 50 μl of 10 μM thioperamide, respectively. The assay was terminated by rapid filtration through Whatman GF/B filters, presoaked (2 hr) in 0.1% polyethyleneimine, using a Brandell Cell Harvester. The filters were washed (3×3 ml) with ice-cold 50 mM Tris-HCl (pH6.9 at 21±3° C.), transferred into scintillation vials, 5 ml liquid scintillation cocktail was added and after 4 hours the bound radioactivity was determined by counting (4 min) in a Beckman liquid scintillation counter.
Data are analysed using GraphPad prism and the general equation for a competition curve with variable Hill slope (nH). [formula] where • X is the log concentration of competing compound, • Y is the binding obtained at each concentration of X, • pIC50 is the concentration of the competitor required to compete for half of the specific binding.
The IC50 is converted to the K1 using the Cheng Prusoff equation, K1=IC50/(1+(L/KD)) where • IC50 is the concentration of competitor required to compete for half the specific binding, • L is the radioligand concentration used, • KD is the equilibrium dissociation constant for the radioligand determined by saturation experiments.

T1 sequence (Q9JI35 whole entry): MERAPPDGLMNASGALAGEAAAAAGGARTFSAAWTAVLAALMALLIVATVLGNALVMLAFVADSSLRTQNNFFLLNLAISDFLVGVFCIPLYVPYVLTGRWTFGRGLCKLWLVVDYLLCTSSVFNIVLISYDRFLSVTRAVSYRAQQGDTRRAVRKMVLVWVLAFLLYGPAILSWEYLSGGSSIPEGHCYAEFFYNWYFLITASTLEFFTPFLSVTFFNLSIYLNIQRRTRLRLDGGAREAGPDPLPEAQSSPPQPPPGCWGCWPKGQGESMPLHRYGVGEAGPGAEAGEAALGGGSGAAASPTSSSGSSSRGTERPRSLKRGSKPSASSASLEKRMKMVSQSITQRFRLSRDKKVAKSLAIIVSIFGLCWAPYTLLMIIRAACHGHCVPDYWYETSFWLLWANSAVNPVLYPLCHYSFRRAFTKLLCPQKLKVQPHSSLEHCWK

Take `N=C(N)NCCCN1CCCC1` [Example 1, N-(3-Pyrrolidin-1-yl-propyl)-guanidine bis-hydrochloride]: the Kb at Histamine H3 receptor [1] was 3980 nM. Further, the Ki on Histamine H3 receptor [2] was 63.1 nM.

As for `N=C(NCCCN1CCCC1)NCc1ccc(Cl)cc1` [Example 2, N-(4-Chlorobenzyl)-N′-(3-pyrrolidin-1-yl-propyl)-guanidine bis-hydrochloride], the Kb on Histamine H3 receptor [1] is 398 nM. Moreover, the Ki on Histamine H3 receptor [2] was 50.1 nM.

Consider `COc1ccc(C/N=C(\N)NCCCN2CCCC2)cc1` [Example 3, N-(4-Methoxybenzyl)-N′-(3-pyrrolidin-1-yl-propyl)-guanidine bis-hydrochloride], for which the Kb at Histamine H3 receptor [1] is 794 nM. Also, the Ki on Histamine H3 receptor [2] was 79.4 nM.

Regarding `Cl.Cl.N=C(NCCCN1CCCC1)NCc1ccc2ccccc2c1` [Example 4, N-Naphthalen-2-yl-methyl-N′-(3-pyrrolidin-1-yl-propyl)-guanidine bis-hydrochloride], the “pKb (Guinea pig ileum)” value at Histamine H3 receptor [1] stood at 6.5. In addition, the “pKi (Guinea pig cortex)” value at Histamine H3 receptor [2] turned out to be 7.1.

With `N=C(NCCCN1CCCC1)NCc1ccc(C(F)(F)F)cc1` [Example 5, N-(4-(Trifluoromethyl)benzyl)-N′-(3-pyrrolidin-1-yl-propyl)-guanidine bis-hydrochloride], on Histamine H3 receptor [1], the Kb was 794 nM.

For the compound `N=C(NCCCN1CCCC1)NCc1ccc(I)cc1` [Example 6, N-(4-Iodobenzyl)-N′-(3-pyrrolidin-1-yl-propyl)-guanidine bis-hydrochloride], the Kb at Histamine H3 receptor [1] was 398 nM. Further, on Histamine H3 receptor [2], the Ki was 50.1 nM.

Regarding `COc1ccc(CNC(=N)NCCCN2CCCC2)cc1Br` [Example 7, N-(3-Bromo-4-methoxy-benzyl)-N′-(3-pyrrolidin-1-yl-propyl)-guanidine bis-hydrochloride], the Kb at Histamine H3 receptor [1] is 398 nM. Moreover, the Ki on Histamine H3 receptor [2] was 39.8 nM.

Take `N=C(NCCCN1CCCC1)NCc1ccccc1` [Example 8, N-Benzyl-N′-(3-pyrrolidin-1-yl-propyl)-guanidine bis-hydrochloride]: the Kb on Histamine H3 receptor [1] is 631 nM.

On to `N=C(NCCCN1CCCC1)NCc1ccc(Br)cc1` [Example 9, N-(4-Bromobenzyl)-N′-(3-pyrrolidin-1-yl-propyl)-guanidine bis-hydrochloride], for which the Kb at Histamine H3 receptor [1] was 316 nM. For the same compound, on Histamine H3 receptor [2], the Ki was 5.01 nM.

For `N=C(NCCCN1CCCC1)NCc1cccc(Br)c1` [Example 10, N-(3-Bromobenzyl)-N′-(3-pyrrolidin-1-yl-propyl)-guanidine bis-hydrochloride], the Kb on Histamine H3 receptor [1] is 316 nM. The Ki at Histamine H3 receptor [2] is 25.1 nM.

Consider `N=C(NCCCN1CCCC1)NCc1ccccc1Br` [Example 11, N-(2-Bromobenzyl)-N′-(3-pyrrolidin-1-yl-propyl)-guanidine bis-hydrochloride], for which the Kb at Histamine H3 receptor [1] was 501 nM. Besides, the Ki at Histamine H3 receptor [2] was 39.8 nM.

For `Cl.Cl.N=C(NCCCN1CCCC1)NCc1ccc(-c2ccccc2)cc1` [Example 12, N-Biphenyl-4-yl-methyl-N′-(3-pyrrolidin-1-yl-propyl)-guanidine bis-hydrochloride], the “pKb (Guinea pig ileum)” value at Histamine H3 receptor [1] stood at 6.3. Also, the “pKi (Guinea pig cortex)” value at Histamine H3 receptor [2] was determined as 6.2.

For `N=C(N)N(CCCCN1CCCC1)Cc1ccc(Cl)cc1` [Example 68, N-(4-Chlorobenzyl)-N-(4-pyrrolidin-1-yl-butyl)-guanidine bis-hydrochloride], at Histamine H3 receptor [1], the Kb was 50.1 nM.

Turning to `N=C(N)N(CCCCCCCN1CCCC1)Cc1ccc(Cl)cc1` [Example 71, N-(4-Chlorobenzyl)-N-(7-pyrrolidin-1-yl-heptyl)-guanidine bis-hydrochloride], the Kb on Histamine H3 receptor [1] is 3.98 nM.

`N=C(N)N(CCCCCCCCN1CCCC1)Cc1ccc(Cl)cc1` [Example 79, N-(4-Chlorobenzyl)-N-(8-pyrrolidin-1-yl-octyl)-guanidine bis-hydrochloride]: the Kb on Histamine H3 receptor [1] is 7.94 nM.

On to `N=C(N)N(CCCCCCCCCN1CCCC1)Cc1ccc(Cl)cc1` [Example 80, N-(4-Chlorobenzyl)-N-(9-pyrrolidin-1-yl-nonyl)-guanidine bis-hydrochloride], for which the Kb at Histamine H3 receptor [1] is 10 nM.
